In publication PMC8944975, “Secretin Receptor as a Target in Gastrointestinal Cancer: Expression Analysis and Ligand Development” (Biomedicines, 2022):
Like-named read-outs stand apart in the source and are kept apart here.

Molecular target: human SCTR (Homo sapiens, UniProt P47872)
Test: agonist-induced β-arr2-GFP translocation
Type: cell-based
Parameters: expressed in transfected cells; host or cells: U2OS (human osteosarcoma), stably co-transfected with β-arrestin2-GFP
Settings: for β-arrestin2-GFP agonism efficacy: % of wild-type secretin; for EC50: mean of at least three independent experiments in duplicates
Source text: U2OS-SCTR/β-arr2-GFP: human osteosarcoma cell line U2OS (purchased from ATCC/LGC Standards, Wesel, Germany) were stably transfected with plasmids encoding SCTR (Homo sapiens) and the fusion protein β-arrestin2-green fluorescent protein (GFP) (Rattus norvegicus-Aequorea victoria) (β-arr2-GFP).
To evaluate reactivity of human SCTR exposed to different ligand variants, intracellular translocation of a fusion protein of β-arrestin2 and green fluorescent protein was utilized. For evaluation of activation, receptor-mediated recruitment of cytoplasmic β-arr2-GFP was monitored through its translocation into condensed intracellular vesicles. The extent of translocation events was quantified by determining the increasing granularization of the intracellular fluorescence utilizing an automated high-throughput microscope in combination with computational algorithms to estimate potency (EC50) and efficacy, thus characterizing ligand-SCTR interaction. U2OS-SCTR/β-arr2-GFP cells were seeded in 96-well cell culture plates to 60–80% confluence. On the following day, preceding stimulation, cells were incubated for one hour in serum-free medium. Ligand variants were applied as serial dilutions in assay buffer C1. After preincubation, supernatant was discarded by tapping plates overhead repeatedly. For stimulation, 50 µL of ligand dilution was applied per well in duplicates and incubated for 20 min at 37 °C. Successively, cells were fixed by applying 4% buffered formaldehyde (Herbeta Arzneimittel, Berlin, Germany) for 10 min at room temperature and consecutively permeabilized for 10 min at room temperature with 0.1% TritonX-100 in PBS, containing DAPI (4′,6-Diamidin-2-phenylindol, SigmaAldrich, Deisenhofen, Germany, 1 µg/mL) to counterstain nuclei. Microscopic images were recorded by an IN Cell Analyzer 1000 (GE Healthcare, Reading, UK) with 20× magnification at 5 frames per well in a 96-well format. Image processing was performed with IN Cell Investigator software (GE Healthcare, Reading, UK), applying the provided granularity algorithm. The output of the analysis was indicated as vesicle area/cell and was utilized for calculation of concentration–response curves. Parameters derived from curve fitting included the concentration of half-maximal activity (EC50), and intrinsic activity. Intrinsic activity was normalized defining reaction to non-modified wild type secretin as the 100% curve maximum value.

[1] = Supplementary Tables S1 and S2, decimal comma, '-' not detectable (Figure 4)
[2] = Supplementary Tables S1 and S2, U2OS-SCTR/β-arr2-GFP cells, 20 min at 37 °C, decimal comma, '-' not detectable (Figure 4), read-out: β-arrestin2-GFP agonism potency

human SCTR, sequence (P47872 23-440): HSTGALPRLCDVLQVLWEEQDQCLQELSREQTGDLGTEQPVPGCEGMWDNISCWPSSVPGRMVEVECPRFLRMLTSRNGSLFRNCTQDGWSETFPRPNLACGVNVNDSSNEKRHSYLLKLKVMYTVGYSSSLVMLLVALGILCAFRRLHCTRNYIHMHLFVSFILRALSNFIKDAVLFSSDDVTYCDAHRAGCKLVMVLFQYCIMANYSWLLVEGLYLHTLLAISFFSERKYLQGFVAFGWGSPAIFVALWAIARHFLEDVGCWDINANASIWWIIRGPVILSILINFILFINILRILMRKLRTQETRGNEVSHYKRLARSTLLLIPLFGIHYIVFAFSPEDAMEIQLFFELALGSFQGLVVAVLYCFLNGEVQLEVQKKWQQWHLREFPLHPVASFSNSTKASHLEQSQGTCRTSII

Molecule | β-arrestin2-GFP agonism efficacy [1] | also measured
CC(C)C[C@H](NC(=O)CNC(=O)[C@H](CCC(N)=O)NC(=O)[C@H](CC(C)C)NC(=O)[C@H](CC(C)C)NC(=O)[C@H](CCCNC(=N)N)NC(=O)[C@H](CCC(N)=O)NC(=O)[C@H](CC(C)C)NC(=O)[C@H](CCCNC(=N)N)NC(=O)[C@H](C)NC(=O)CNC(=O)[C@H](CCC(=O)O)NC(=O)[C@H](CCCCN)NC(=O)[C@H](CC(C)C)NC(=O)[C@H](CCCNC(=N)N)NC(=O)[C@H](CO)NC(=O)[C@H](CC(C)C)NC(=O)[C@H](CCC(=O)O)NC(=O)[C@H](CO)NC(=O)[C@@H](NC(=O)[C@H](Cc1ccccc1)NC(=O)[C@@H](NC(=O)CNC(=O)[C@H](CC(=O)O)NC(=O)[C@H](CO)NC(=O)[C@@H](N)Cc1c[nH]cn1)[C@@H](C)O)[C@@H](C)O)C(=O)N[C@H](C(=O)O)C(C)C [Peptide 68] | 114,30 % Sec | EC50 [2]: 9.53 nM
HSDGTFtSELSRLREGARLQRLLQGLV [Peptide 91, D-amino acid substitution variant of human secretin] | 98,33 % Sec | –
CC(C)C[C@H](NC(=O)CNC(=O)[C@H](CCC(N)=O)NC(=O)[C@H](CC(C)C)NC(=O)[C@H](CC(C)C)NC(=O)[C@H](CCCNC(=N)N)NC(=O)[C@H](CCC(N)=O)NC(=O)[C@H](CC(C)C)NC(=O)[C@H](CCCNC(=N)N)NC(=O)[C@H](C)NC(=O)CNC(=O)[C@H](CCC(=O)O)NC(=O)[C@H](CCCNC(=N)N)NC(=O)[C@H](CC(C)C)NC(=O)[C@H](CCCNC(=N)N)NC(=O)[C@H](CO)NC(=O)[C@H](CC(C)C)NC(=O)[C@H](CCC(=O)O)NC(=O)[C@H](CO)NC(=O)[C@@H](NC(=O)[C@H](Cc1ccccc1)NC(=O)[C@@H](NC(=O)CNC(=O)[C@H](CC(=O)O)NC(=O)[C@@H](CO)NC(=O)[C@@H](N)Cc1c[nH]cn1)[C@@H](C)O)[C@@H](C)O)C(=O)N[C@H](C(=O)O)C(C)C [Peptide 87] | 91,57 % Sec | –
CC(C)C[C@H](NC(=O)[C@H](CCCNC(=N)N)NC(=O)[C@H](C)NC(=O)CNC(=O)[C@H](CCC(=O)O)NC(=O)[C@H](CCCNC(=N)N)NC(=O)[C@H](CC(C)C)NC(=O)[C@H](CCCNC(=N)N)NC(=O)[C@H](CO)NC(=O)[C@H](CC(C)C)NC(=O)[C@H](CCC(=O)O)NC(=O)[C@H](CO)NC(=O)[C@@H](NC(=O)[C@H](Cc1ccccc1)NC(=O)[C@@H](NC(=O)CNC(=O)[C@H](CC(=O)O)NC(=O)[C@H](CO)NC(=O)[C@@H](N)Cc1c[nH]cn1)[C@@H](C)O)[C@@H](C)O)C(=O)N[C@@H](CCC(N)=O)C(=O)N[C@@H](CCCNC(=N)N)C(=O)N[C@@H](CC(C)C)C(=O)N[C@@H](CC(C)C)C(=O)N[C@@H](CCC(N)=O)C(=O)NCC(=O)N[C@@H](CC(C)C)C(=O)N1CCC[C@H]1C(=O)O [Peptide 85] | 100,47 % Sec | EC50 [2]: 5.19 nM
CC(C)C[C@H](NC(=O)CNC(=O)[C@H](CCC(N)=O)NC(=O)[C@H](CC(C)C)NC(=O)[C@H](CC(C)C)NC(=O)[C@H](CCCNC(=N)N)NC(=O)[C@H](CCC(N)=O)NC(=O)[C@H](CC(C)C)NC(=O)[C@H](CCCNC(=N)N)NC(=O)[C@H](CCC(=O)O)NC(=O)CNC(=O)[C@H](CCC(=O)O)NC(=O)[C@H](CCCNC(=N)N)NC(=O)[C@H](CC(C)C)NC(=O)[C@H](CCCNC(=N)N)NC(=O)[C@H](CO)NC(=O)[C@H](CC(C)C)NC(=O)[C@H](CCC(=O)O)NC(=O)[C@H](CO)NC(=O)[C@@H](NC(=O)[C@H](Cc1ccccc1)NC(=O)[C@@H](NC(=O)CNC(=O)[C@H](CC(=O)O)NC(=O)[C@H](CO)NC(=O)[C@@H](N)Cc1c[nH]cn1)[C@@H](C)O)[C@@H](C)O)C(=O)N[C@H](C(=O)O)C(C)C [Peptide 70] | 104,77 % Sec | EC50 [2]: 2.26 nM
GLP-2: structurally related glucagon-like peptide 2 [reference compound] | – | SCTR activation (agonism) in the β-arr2-GFP translocation assay, in words (U2OS-SCTR/β-arr2-GFP cells): no SCTR activation
CC(C)C[C@H](NC(=O)CNC(=O)[C@H](CCC(N)=O)NC(=O)[C@H](CC(C)C)NC(=O)[C@H](CC(C)C)NC(=O)[C@H](CCCNC(=N)N)NC(=O)[C@H](CCC(N)=O)NC(=O)[C@H](CC(C)C)NC(=O)[C@H](CCCNC(=N)N)NC(=O)[C@H](C)NC(=O)CNC(=O)[C@H](CCC(=O)O)NC(=O)[C@H](CCCNC(=N)N)NC(=O)[C@H](CC(C)C)NC(=O)[C@H](CCCNC(=N)N)NC(=O)[C@H](CO)NC(=O)[C@H](CC(C)C)NC(=O)[C@H](CCC(=O)O)NC(=O)[C@H](CO)NC(=O)[C@@H](NC(=O)[C@H](Cc1ccccc1)NC(=O)[C@@H](NC(=O)CNC(=O)[C@H](CC(=O)O)NC(=O)[C@H](CO)NC(=O)[C@H](N)Cc1c[nH]cn1)[C@@H](C)O)[C@@H](C)O)C(=O)N[C@H](C(=O)O)C(C)C [Peptide 86] | 107,20 % Sec | –
CC(C)C[C@H](NC(=O)CNC(=O)[C@H](CCC(N)=O)NC(=O)[C@H](CC(C)C)NC(=O)[C@H](CC(C)C)NC(=O)[C@H](CCCNC(=N)N)NC(=O)[C@H](CCC(N)=O)NC(=O)[C@H](CC(C)C)NC(=O)[C@H](CCCNC(=N)N)NC(=O)[C@H](C)NC(=O)CNC(=O)[C@H](CCC(=O)O)NC(=O)[C@H](CCCNC(=N)N)NC(=O)[C@H](CC(C)C)NC(=O)[C@H](CCCNC(=N)N)NC(=O)[C@H](CO)NC(=O)[C@H](CC(C)C)NC(=O)[C@H](CCC(=O)O)NC(=O)[C@H](CO)NC(=O)[C@@H](NC(=O)[C@H](Cc1ccccc1)NC(=O)[C@H](NC(=O)CNC(=O)[C@H](CC(=O)O)NC(=O)[C@H](CO)NC(=O)[C@@H](N)Cc1c[nH]cn1)[C@H](C)O)[C@@H](C)O)C(=O)N[C@H](C(=O)O)C(C)C [Peptide 89] | 102,97 % Sec | –
CC(C)C[C@H](NC(=O)CNC(=O)[C@H](CCC(N)=O)NC(=O)[C@H](CC(C)C)NC(=O)[C@H](CC(C)C)NC(=O)[C@H](CCCNC(=N)N)NC(=O)[C@H](CCC(N)=O)NC(=O)[C@H](CC(C)C)NC(=O)[C@H](CCCNC(=N)N)NC(=O)[C@H](C)NC(=O)CNC(=O)[C@H](CCC(=O)O)NC(=O)[C@H](CCCNC(=N)N)NC(=O)[C@H](CC(C)C)NC(=O)[C@H](CCCNC(=N)N)NC(=O)[C@H](CO)NC(=O)[C@H](CC(C)C)NC(=O)[C@H](CCC(=O)O)NC(=O)[C@H](CO)NC(=O)[C@@H](NC(=O)[C@H](C)NC(=O)[C@@H](NC(=O)CNC(=O)[C@H](CC(=O)O)NC(=O)[C@H](CO)NC(=O)[C@@H](N)Cc1c[nH]cn1)[C@@H](C)O)[C@@H](C)O)C(=O)N[C@H](C(=O)O)C(C)C [Peptide 7] | – | EC50 (U2OS-SCTR/β-arr2-GFP cells, ligand 20 min at 37 °C, vesicle area/cell by automated microscopy, read-out: EC50, β-arr2-GFP translocation assay): 155 ± 30.8 nM; Emax (U2OS-SCTR/β-arr2-GFP cells, normalized to wild type secretin = 100% curve maximum, read-out: intrinsic activity (efficacy), β-arr2-GFP translocation assay): 61.8 ± 4.9%

Continued, in another order:

β-arrestin2-GFP agonism efficacy [1] | Molecule | also measured
94,17 % Sec | CC(C)C[C@H](NC(=O)CNC(=O)[C@H](CCC(N)=O)NC(=O)[C@H](CC(C)C)NC(=O)[C@H](CC(C)C)NC(=O)[C@H](CCCNC(=N)N)NC(=O)[C@H](CCC(N)=O)NC(=O)[C@H](CC(C)C)NC(=O)[C@H](CCCNC(=N)N)NC(=O)[C@H](C)NC(=O)CNC(=O)[C@H](CCC(=O)O)NC(=O)[C@H](CCCNC(=N)N)NC(=O)[C@H](CC(C)C)NC(=O)[C@H](CCCNC(=N)N)NC(=O)[C@H](CO)NC(=O)[C@@H](CC(C)C)NC(=O)[C@H](CCC(=O)O)NC(=O)[C@H](CO)NC(=O)[C@@H](NC(=O)[C@H](Cc1ccccc1)NC(=O)[C@@H](NC(=O)CNC(=O)[C@H](CC(=O)O)NC(=O)[C@H](CO)NC(=O)[C@@H](N)Cc1c[nH]cn1)[C@@H](C)O)[C@@H](C)O)C(=O)N[C@H](C(=O)O)C(C)C [Peptide 94] | –
90,37 % Sec | HSDGTFTsELSRLREGARLQRLLQGLV [Peptide 92, D-amino acid substitution variant of human secretin] | –
101,90 % Sec | CC(C)C[C@H](NC(=O)[C@H](CCCNC(=N)N)NC(=O)[C@H](C)NC(=O)CNC(=O)[C@H](CCC(=O)O)NC(=O)[C@H](CCCNC(=N)N)NC(=O)[C@H](CC(C)C)NC(=O)[C@H](CCCNC(=N)N)NC(=O)[C@H](CO)NC(=O)[C@H](CC(C)C)NC(=O)[C@H](CCC(=O)O)NC(=O)[C@H](CO)NC(=O)[C@@H](NC(=O)[C@H](Cc1ccccc1)NC(=O)[C@@H](NC(=O)CNC(=O)[C@H](CC(=O)O)NC(=O)[C@H](CO)NC(=O)[C@@H](N)Cc1c[nH]cn1)[C@@H](C)O)[C@@H](C)O)C(=O)N[C@@H](CCC(N)=O)C(=O)N[C@@H](CCCNC(=N)N)C(=O)N[C@@H](CC(C)C)C(=O)N[C@@H](CC(C)C)C(=O)N[C@@H](CCC(N)=O)C(=O)NCC(=O)N[C@H](CC(C)C)C(=O)N[C@H](C(=O)O)C(C)C [Peptide 95] | –
